Results taken from the NIST ThermoML archive (doi:10.1016/j.jct.2018.01.019).

Assay: molar heat capacity at constant pressure
Conditions: 101.33 kPa, Small sample (50 mg) DSC

O=[Si]=O [silicon dioxide]
Conditions | molar heat capacity at constant pressure [J/K/mol]
809.47 K, Crystal 2 | 72.53
809.64 K, Crystal 2 | 72.6
809.8 K, Crystal 2 | 72.59
809.97 K, Crystal 2 | 72.54
855 K, Crystal 1 | 69.38
855.17 K, Crystal 1 | 69.28
855.33 K, Crystal 1 | 69.26
855.5 K, Crystal 1 | 69.13
855.67 K, Crystal 1 | 69.16
855.83 K, Crystal 1 | 69.22
856 K, Crystal 1 | 69.21
856.16 K, Crystal 1 | 69.11
856.33 K, Crystal 1 | 69.06
856.5 K, Crystal 1 | 68.99
856.66 K, Crystal 1 | 68.93
856.83 K, Crystal 1 | 68.69
857 K, Crystal 1 | 68.5
857.17 K, Crystal 1 | 68.55
857.34 K, Crystal 1 | 68.66
857.51 K, Crystal 1 | 68.7
857.68 K, Crystal 1 | 68.71
857.84 K, Crystal 1 | 68.75
858.01 K, Crystal 1 | 68.66
858.17 K, Crystal 1 | 68.56
858.34 K, Crystal 1 | 68.6
858.51 K, Crystal 1 | 68.58
858.68 K, Crystal 1 | 68.63
858.84 K, Crystal 1 | 68.51
859.01 K, Crystal 1 | 68.34
859.18 K, Crystal 1 | 68.29
859.34 K, Crystal 1 | 68.29
859.51 K, Crystal 1 | 68.3
859.68 K, Crystal 1 | 68.35
859.84 K, Crystal 1 | 68.21
860.01 K, Crystal 1 | 68.03
860.18 K, Crystal 1 | 68.14
860.34 K, Crystal 1 | 68.2
860.51 K, Crystal 1 | 68.18
860.67 K, Crystal 1 | 68.22
860.84 K, Crystal 1 | 68.32
861.01 K, Crystal 1 | 68.41
861.17 K, Crystal 1 | 68.37
861.34 K, Crystal 1 | 68.49
861.51 K, Crystal 1 | 68.55
861.67 K, Crystal 1 | 68.37
861.84 K, Crystal 1 | 68.37
862.01 K, Crystal 1 | 68.4
862.18 K, Crystal 1 | 68.4
862.34 K, Crystal 1 | 68.53
862.51 K, Crystal 1 | 68.5
862.68 K, Crystal 1 | 68.45
862.84 K, Crystal 1 | 68.5
863.01 K, Crystal 1 | 68.42
863.18 K, Crystal 1 | 68.35
863.35 K, Crystal 1 | 68.3
863.51 K, Crystal 1 | 68.21
863.68 K, Crystal 1 | 68.19
863.85 K, Crystal 1 | 68.28
864.01 K, Crystal 1 | 68.44
864.18 K, Crystal 1 | 68.48
864.34 K, Crystal 1 | 68.4
864.51 K, Crystal 1 | 68.29
864.68 K, Crystal 1 | 68.37
864.84 K, Crystal 1 | 68.59
865.01 K, Crystal 1 | 68.52
865.18 K, Crystal 1 | 68.35
865.34 K, Crystal 1 | 68.39
865.5 K, Crystal 1 | 68.4
865.67 K, Crystal 1 | 68.46
865.84 K, Crystal 1 | 68.59
866.01 K, Crystal 1 | 68.64
866.18 K, Crystal 1 | 68.69
866.35 K, Crystal 1 | 68.59
866.51 K, Crystal 1 | 68.39
866.67 K, Crystal 1 | 68.35
866.84 K, Crystal 1 | 68.26
867.01 K, Crystal 1 | 68.21
867.17 K, Crystal 1 | 68.25
867.34 K, Crystal 1 | 68.38
867.51 K, Crystal 1 | 68.37
867.67 K, Crystal 1 | 68.45
867.84 K, Crystal 1 | 68.49
868.01 K, Crystal 1 | 68.4
868.18 K, Crystal 1 | 68.35
868.34 K, Crystal 1 | 68.32
868.51 K, Crystal 1 | 68.4
868.68 K, Crystal 1 | 68.45
868.85 K, Crystal 1 | 68.49
869.01 K, Crystal 1 | 68.43
